PMC11689655, “High-throughput screening of dual-target inhibitors for SARS-CoV-2 main protease and papain-like protease from Chebulae Fructus: in silico prediction and experimental verification” (Frontiers in Microbiology, 2024)
Like-named read-outs stand apart in the source and are kept apart here.

Assays:
[1] = system: SARS-CoV-2 wild-type; assay: Antiviral activity (CPE inhibition) in Vero E6 cells, wild-type; format: cell-based; details: read-out: EC50 against SARS-CoV-2 wild-type strain
[2] = Cytotoxicity by CCK8 assay; details: African green monkey
[3] = target: T1, SARS-CoV-2 PL^pro (Severe acute respiratory syndrome coronavirus 2, UniProt P0DTD1); assay: FRET enzymatic inhibition assay, PL^pro; format: biochemical
[4] = target: T2, SARS-CoV-2 M^pro (Severe acute respiratory syndrome coronavirus 2, UniProt P0DTD1); assay: biochemical; details: FRET
[5] = target: T2, SARS-CoV-2 M^pro; assay: biochemical; format: binding; details: SPR, Biacore T200, CM5 chip, kinetics analysis
[6] = in vitro; details: African green monkey
[7] = target: T1, SARS-CoV-2 PL^pro; assay: SPR assay, PL^pro; format: binding; details: Biacore T200, CM5 chip, kinetics analysis
[8] = Severe acute respiratory syndrome coronavirus 2, Vero C1008, MOI = 0.01, 48 h

In the case of `O=C(OC[C@H]1O[C@@H](OC(=O)c2cc(O)c(O)c(O)c2)[C@H](OC(=O)c2cc(O)c(O)c(O)c2)[C@@H](OC(=O)c2cc(O)c(O)c(O)c2)[C@@H]1OC(=O)c1cc(O)c(O)c(O)c1)c1cc(O)c(O)c(O)c1` [PGG, 1,2,3,4,6-penta-O-galloyl-β-D-glucose], the EC50 [1, 8] is reported as 8.22 µM and the CC50 [2] is reported as > 100 µM.
Molecule `Cn1cnc(Cn2c(=O)[nH]/c(=N\c3cc4cn(C)nc4cc3Cl)n(Cc3cc(F)c(F)cc3F)c2=O)n1` [S-217622, reference compound] has an EC50 ([1]; MOI = 0.01, 48 h) of 0.05 µM.
In the case of `O=C(OC[C@H]1O[C@@H](OC(=O)c2cc(O)c(O)c(O)c2)[C@H](OC(=O)c2cc(O)c(O)c(O)c2)[C@@H](OC(=O)c2cc(O)c(O)c(O)c2)[C@@H]1O)c1cc(O)c(O)c(O)c1` [TGG, 1,2,3,6-tetra-O-galloyl-β-D-glucose], the EC50 [1, 8] is reported as 13 µM, the IC50 ([3]; 1.0 μM PL^pro, 10 μM substrate, mean ± SD, n = 3, read-out: IC50 against PL^pro) is reported as 27.4 ± 2.43 µM and the inhibition at 40 µM ([3]; compound 40 μM, read-out: inhibition effect on PL^pro) is reported as > 60%. The IC50 ([4]; 0.2 μM M^pro, 20 μM substrate, mean ± SD, n = 3, read-out: IC50 against M^pro) was 1.33 ± 0.47 µM, the inhibition at 40 µM ([4]; compound 40 μM, read-out: inhibition effect on M^pro) was > 60% and the Kd [5] was 0.768 µM. For the same molecule, the CC50 [6] was > 100 µM and the Kd [7] was 0.776 µM.
